Results reported in publication PMC5066224, “A Novel Resveratrol Based Tubulin Inhibitor Induces Mitotic Arrest and Activates Apoptosis in Cancer Cells” (Scientific Reports, 2016).

Columns and labels:
CEM cells [1] = assay: Immunoblotting of cell cycle and apoptotic proteins; format: cell-based, Human; conditions: 5 μM, 24, 48 and 72 h
Method: (§1) Cell lysate was prepared after treating with SS28 (5 μM for 24, 48 and 72 h) from CEM and A549 cell lines. In brief, cells were harvested, washed with PBS, resuspended in lysis buffer (RIPA, 25 mM Tris (pH 7.6), 150 mM NaCl, 1% NP-40, 1% sodium deoxycholate and 0.1% SDS) containing protease inhibitors. The protein lysate was cleared by centrifugation (14,000 rpm, for 15 min). The protein concentration in the supernatant was determined using the Bradford’s assay.
(§2) For western blot analysis, ~40 μg proteins were resolved over 8–10% SDS–polyacrylamide gel[60][61][62]. Following gel electrophoresis, proteins were transferred to PVDF membrane (Millipore, USAQ9). The primary antibodies used were against Caspase 3, Caspase 9, p73, p53, KU70, KU80, Cyclin B1, CDK6, PARP1 and Actin (Santa Cruz Biotechnology, USA). The membrane was incubated with appropriate HRP-conjugated secondary antibody (2 h at 4° C). The blots were developed using chemiluminescent solution (Immobilon^TM western, Millipore) and scanned by gel documentation system (LAS 3000, FUJI, Japan). Blots were stripped subsequently as per standard protocols and reprobed with anti β-Actin antibody.

A549 cells [2] = assay: as above; format: cell-based, human; conditions: A549, 5 μM, 24, 48 and 72 h
Method: as §1, §2

CEM cells [3] = assay: Cell cycle phase distribution by flow cytometry; format: cell-based, Human; conditions: 2 μM, after 12 h
Method: (§3) Cell cycle analysis by flow cytometry was performed as previously described. Briefly, 75,000 cells/ml (A549) were seeded in 6 well plates and grown in serum free medium for 18 h. After synchronisation, the cells were treated with 5 μM of SS28 (6, 12, 18, 24 and 30 h) and cells were processed as described before. Similarly, CEM cells (75,000 cells/ml) were treated with SS28 (2 μM) and harvested (6, 12, 18, 24 and 30 h) and processed. Following fixation, cells were resuspended in PBS and stained with propidium iodide and evaluated in a flow cytometer (FACS Calibur, Becton Dickinson) using Cell Quest Pro software using excitation 488 nm laser and emission at 560/570 nm. A minimum of 10,000 cells were acquired per sample and histograms were analysed using WinMDI 2.8 software.

[4] = test system: several cancer cell lines; assay: Cytotoxicity in cancer cell lines ex vivo (summary); format: cell-based
Method: The effect of SS28 on viability of CEM, Reh, Nalm6, SUDHL8, Molt4, A549, HeLa 293T, mouse embryonic fibroblast (MEF) and PBMC was determined by trypan blue dye exclusion assay as described previously. Briefly, cells (0.75 × 10^5 cells/ml) were treated with increasing concentrations of SS28 (1, 5, 10 and 20, μM) for 48 and 72 h. DMSO treated cells were used as the vehicle control. Cells were harvested and subjected to trypan blue assay. Data from a minimum of three independent experiments is presented as a histogram with error bars.

CEM cells [5] = assay: Intracellular ROS production (H2DCFDA, flow cytometry); format: cell-based, Human; conditions: 5 to 60 min
Method: Intracellular ROS generation in cells was assessed using the oxidation-sensitive fluorescent probe 2,7-dichlorodihydro fluorescein diacetate (H2DCFDA) as previously described. CEM cells were treated with SS28 (5 μM) for 5, 10, 15, 30 and 60 min, harvested, washed and incubated with H2DCFDA (30 min at 37 °C) and then fluorescence intensity was analyzed by flow cytometry. H2O2 was used as the positive control.

CEM cells [6] = assay: Annexin V-FITC/PI double-staining assay; format: cell-based, Human; conditions: 48 h; for cells in early apoptotic stage: Annexin positive; for cells in late apoptosis: Annexin/PI positive
Method: When cells undergo apoptosis, the integrity of the cell membrane is disrupted and phosphatidyl serine is exposed. Annexin V conjugated with FITC (apoptosis detection kit Santacruz, USA) has a selective affinity for phosphatidyl serine, based on which early and late apoptotic cells can be detected.
CEM cells (1 × 10^5 cells/ml) were treated with SS28 (5 and 10 μM) for 48 h. Cells were then harvested, washed with cold PBS and used for annexin-PI double-staining assay. Samples were resuspended in 1x binding buffer and incubated with Annexin V-FITC ([…]) and PI (0.05 mg/ml) and analyzed by flow cytometry (FACS calibur) using CellQuest pro software at an excitation with 488 nm laser and emission at 530 nm[55]. A minimum of 10,000 cells were acquired for each sample and illustrated as dot plot using Flowing software.

purified Tubulin = assay: Circular dichroism of Tubulin with SS28; format: binding; conditions: Tubulin 1 μM in PEM buffer, 200-260 nm, 4 °C
Method: Purified Tubulin (1 μM) was resuspended in PEM buffer (80 mM PIPES (pH 6.9), 2 mM MgCl2, 0.5 mM EGTA, 1.0 mM GTP and 5% glycerol) and CD spectrum was recorded at a wavelength of 200 to 260 nm (4 °C) on a JASCO J-810 spectropolarimeter. 3 cycles were acquired for each sample at a scan speed of 100 nm/sec. Increasing concentration of SS28 (500 pM, 1, 10, 100 and 1000 nM) was incubated with Tubulin (1 μM) in PEM buffer and the spectrum was recorded. Spectral measurements were taken for buffer alone and buffer containing DMSO were subtracted from experimental data. The molar ellipticity was calculated using Spectra Manager software and plotted as a function of wavelength.

A549 cells [7] = assay: Immunofluorescence microscopy of spindle microtubule organisation; format: cell-based, human; conditions: 24 h
Method: Immunofluorescence microscopy was performed as previously described. A549 cells were grown on coverslips coated with gelatin (0.1%). […] After 24 h of the treatment nonspecific antibody binding sites were blocked using FBS following which cells were incubated with antitubulin antibody (1:500) at RT. Coverslips were washed in PBS, incubated in biotinylated antimouse secondary antibody (1:500; RT for 1 h) followed by Streptavidin-FITC (1:200). Finally, cells were mounted with DABCO and images were captured using Zeiss Fluorescence microscope and analyzed using Axio vision software. Colchicine treated cells were used as a positive control.

A549 cells [8] = assay: Cell cycle phase distribution by flow cytometry; format: cell-based, human; conditions: A549, 5 μM, 6 to 24 h
Method: as §3

SMILES: COc1cc(/C=C/c2ccc(C)cc2)cc(OC)c1OC [SS28, (E)-1,2,3-trimethoxy-5-(4-methylstyryl)benzene]
- Caspase 3 (CEM cells [1]): showed activation
- Caspase 9 (CEM cells [1]): increase in the cleaved Caspase 9 level
- PARP1 (CEM cells [1]): activation of PARP1
- expression level of Cdk6 (CEM cells [1]): increased at 24 h followed by a decrease at 48 and 72 h
- expression levels of p53 (CEM cells [1]): upregulation of p53 at 24 h time point followed by a decrease in the later time points
- level of Cyclin B1 (CEM cells [1]): increased at 48 h time point in CEM cells followed by a decrease at 72 h
- Caspase 3 (A549 cells [2]): showed activation
- Caspase 9 (A549 cells [2]): increase in the cleaved Caspase 9 level
- expression level of Cdk6 (A549 cells [2]): increased at 24 h followed by a decrease at 48 and 72 h
- expression levels of p73 (A549 cells [2]): remained same
- level of Cyclin B1 (A549 cells [2]): maintained throughout the time period, but with a moderate decrease at 48 h
- cell cycle distribution (CEM cells [3]): distinct G2/M arrest
- IC50 [4]: 3 to 5 µM
- intracellular ROS production (CEM cells [5]): did not show generation of ROS
- cells in early apoptotic stage (CEM cells [6]; 5 μM): 28.2%
- cells in late apoptosis (CEM cells [6]; 5 μM): 39.8%
- cells in early apoptotic stage (CEM cells [6]; 10 μM): 32.9%
- cells in late apoptosis (CEM cells [6]; 10 μM): 46.9%
- necrosis (CEM cells [6]; 5 and 10 μM): did not observe any cells undergoing necrosis
- concentration from which a shift in the CD spectrum of Tubulin was seen (purified Tubulin): ≥ 500 pM
- cells displaying abnormal spindle organisation (A549 cells [7]; A549, 5 μM): ~ 38%
- Metaphase arrest (number of cells) (A549 cells [7]; A549, 5 μM, total number of cells 78): 30
- Metaphase arrest (number of cells) (A549 cells [7]; A549, 10 μM, total number of cells 387): 123
- cell cycle distribution (A549 cells [8]): significant accumulation of cells at G2/M phase
